Test results from US10106854B2, “Biomarkers for prostate cancer” (Aarhus Universitet, priority 2012, dated 2018).

System: BPH1, PNT1A, LNCaP, 22rv1, PC3 and DU145 cell lines
Experiment: 5-aza-dC treatment, RNA extraction and RT-qPCR
Type: cell-based, human
Conditions: prostatic cell lines, 1 μM 5-aza-dC for two days, five day recovery; when methylation was reduced, not when DNA methylation levels were unaffected
Method: BPH1, PNT1A, LNCaP, 22rv1, PC3 and DU145 cell lines at >50% confluence were treated with 1 μM freshly prepared 5-aza-2′-deoxycytidine (5-aza-dC) in 50% acetic acid (Sigma, cat. no.: A3656) for two days. After a five day recovery period, DNA was purified as described above. RNA was purified using the RNeasy Mini kit from Qiagen and stored at −80° C. One μg RNA was reverse transcribed using 100 pmol oligo-dT(24) primer and the SuperScript II Reverse Transcriptase kit (Invitrogen). Taqman® gene expression assays: AOX1 (Hs01565232_m1), C1orf114 (Hs00982321_g1), GAS6 (Hs01090305_m1), and HAPLN3 (Hs00820260_m1) were used with Taqman Mastermix no UNG. UBC was used for normalization (primers: 5′-GATTTGGGTCGCGGTTCTT-3′ and 5′-[…]-3′ used with Power Sybr Green Mastermix). Assays were run twice in triplicate in 10 μL reactions. Reactions were mixed and run as described for qMSP assays.

## Nc1ncn([C@H]2C[C@H](O)[C@@H](CO)O2)c(=O)n1 [5-aza-dC, 5-aza-2′-deoxycytidine]
  RNA expression from DNA hypermethylated genes: generally stimulated RNA expression
